From patent publication US11591323B2, “Muscarinic agonists as non-steroidal and non-opioid analgesics and methods of use thereof” (Barry University, priority 2019, dated 2023) come the findings set out here.

For the experiment, the target named is T1, M1 muscarinic receptor (Homo sapiens, UniProt P11229).
T1 sequence (P11229 1-460): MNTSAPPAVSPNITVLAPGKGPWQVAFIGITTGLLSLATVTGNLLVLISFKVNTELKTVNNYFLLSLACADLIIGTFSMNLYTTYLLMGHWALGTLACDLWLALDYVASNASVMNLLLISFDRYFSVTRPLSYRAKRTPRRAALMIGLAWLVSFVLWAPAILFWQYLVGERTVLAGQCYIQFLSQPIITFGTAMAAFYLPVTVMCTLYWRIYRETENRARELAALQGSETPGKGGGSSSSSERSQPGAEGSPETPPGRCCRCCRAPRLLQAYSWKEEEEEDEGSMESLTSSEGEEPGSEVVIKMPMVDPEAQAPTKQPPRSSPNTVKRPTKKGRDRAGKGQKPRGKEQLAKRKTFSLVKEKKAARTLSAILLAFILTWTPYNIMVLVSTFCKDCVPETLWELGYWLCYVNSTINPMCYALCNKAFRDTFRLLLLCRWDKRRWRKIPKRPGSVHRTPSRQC
As to the kind of experiment: inhibition of forskolin-stimulated cAMP, M1 CHO cells (M1Gi). It counts as cell-based. On the set-up: host or cells: CHO cells, stably transfected. The note with it: for Emax: CHO; for Emax / EC50 / τ / RAi / Kd: M1Gi (↓cAMP); for Emax / EC50 / τ / Kd: Table 8; for effect on forskolin-stimulated production of cAMP: M1, non-preferential response, in words; for RAi: Table 8, relative to carbachol; for Kd: read-out: pKA (converted). On the procedure:
Since activation of phospholipase C (PLC) via M2 and M4 receptors is weak, cells were transferred with G15 G-protein to facilitate coupling.
To determine level of cAMP, cells in suspension were pre-incubated for 1 h with 0.4 μM [^3H]adenine, washed, and incubated for 10 min in the presence of isobutylmethylxanthine and 10 μM forskolin. […] Incubation was ended by addition of 0.2 ml of 2.5 M HCl to the samples. Samples were applied to alumina columns (1.5 g of alumina per column), washed with 2 ml ammonium acetate (pH=7.0) and eluted from columns with 4 ml ammonium acetate and measured by liquid scintillation spectrometry. […] The incubation was stopped by addition of 0.5 ml of chloroform methanol HCl mixture (2:1:0.1). After separation of water and organic phases, 0.6 ml of water phase was applied to Dowex columns (1.5 g of Dowex per column), washed by 20 ml of 60 mM ammonium formate/5 mM sodium borate buffer and eluted from columns with 4 ml of 1M ammonium formate/0.1 formic acid buffer and measured by liquid scintillation spectrometry.
Measurements of the production of cAMP and inositol phosphates: Levels of second messengers cAMP and inositol phosphates were determined in radiochemical chromatography assays as described previously. To determine level of cAMP, cells in suspension were pre-incubated for 1 h with 0.4 μM [^3H]adenine, washed, and incubated for 10 min in the presence of isobutylmethylxanthine and 10 μM forskolin. […] Incubation was ended by addition of 0.2 ml of 2.5 M HCl to the samples. Samples were applied to alumina columns (1.5 g of alumina per column), washed with 2 ml ammonium acetate (pH=7.0) and eluted from columns with 4 ml ammonium acetate and measured by liquid scintillation spectrometry. […] For this purpose, new CHO cell lines stably expressing promiscuous G15 G-protein and M2 or M4 receptor were generated by transfection with pCMV/hygro vector and hygromycin selection. To determine the rate of formation of inositol phosphates IPX, suspended cells were pre-incubated with 0.1 μM [^3H]myo-inositol for 60 min, washed, and incubated with 10 mM LiCl for 15 min. […] The incubation was stopped by addition of 0.5 ml of chloroform methanol HCl mixture (2:1:0.1). After separation of water and organic phases, 0.6 ml of water phase was applied to Dowex columns (1.5 g of Dowex per column), washed by 20 ml of 60 mM ammonium formate/5 mM sodium borate buffer and eluted from columns with 4 ml of 1M ammonium formate/0.1 formic acid buffer and measured by liquid scintillation spectrometry.
For bi-phasic response, curves were inhibitory and stimulatory phase were fitted separately. Operational Model of Functional Agonism
[formula] where y is functional response at concentration of tested compound x, EMAX is maximal response of the system, KA is equilibrium dissociation constant and nH is slope factor. Eq. 5 was fitted to data from functional experiments. Eq. 5 was fitted to data by the two-step procedure described earlier. […] In the second step, Eq. 5 with EMAX fixed to the value determined in the first step was fitted to individual experimental data sets. Relative Intrinsic Activity
Muscarinic receptors are also able to stimulate non-preferential signalling pathways.

The Emax is the size of the effect at its maximum, as opposed to the concentration needed. What is called EC50 is the concentration that produces a half-maximal response. Low readings indicate a more potent agent, high ones a less potent agent. `C1=CCN(Cc2cccs2)CC1.Cl` [Compound 6A, 1-[(thiophen-2-yl)methyl]-1,2,3,6-tetrahydropyridin-1-ium chloride]: the Emax worked out at 26 ± 2%, the “effect on forskolin-stimulated production of cAMP” value was “inhibited cAMP production”, a half-maximal effect (EC50) was put at 11.7 µM and the τ is 0.42 ± 0.04. Moreover, the RAi entry is “+inf” and the Kd was 15.8 µM.

With `C[N+]1(Cc2cccs2)CC=CCC1.[I-]` (stereo not drawn) [Compound 7A, 1-methyl-1-[(thiophen-2-yl)methyl]-1,2,3,6-tetrahydropyridin-1-ium iodide], the Emax came to 30 ± 3%, the “effect on forskolin-stimulated production of cAMP” value is recorded as “inhibited cAMP production”, the EC50 was 7.94 µM and the τ was 0.52 ± 0.05. Further, the RAi entry was “+inf” and the Kd is 12.6 µM.
